Source: ChEMBL document CHEMBL5113503, “Synthesis and biological evaluation of 4-(4-aminophenyl)-6-methylisoxazolo[3,4-b] pyridin-3-amine covalent inhibitors as potential agents for the treatment of acute myeloid leukemia” (Bioorg Med Chem, 2022)

Legend:
[1] = biological target: Serine/threonine-protein kinase AKT (Homo sapiens) (UniProt P31751+Q9Y243+P31749); test: Inhibition of AKT phosphorylation in human MV4-11 cells incubated for 12 hrs by Western blot analysis; assay type: cell-based; conditions: dose 0.1-2.5 µM, DDE = dose-dependent effect
HL-60 = test: Antiproliferative activity against human HL-60 cells harboring wildtype FLT3 assessed as cell growth inhibition measured after 72 hrs by CCK8 assay; conditions: HL-60, 72 h
MV4-11 [2] = test: Induction of apoptosis in human MV4-11 cells assessed as early apoptotic cells at 2.5 uM measured after 48 hrs by Annexin V-FITC/PI double staining based flow cytometric analysis (reference value: 2.04 %); assay type: functional
MV4-11 [3] = test: Induction of apoptosis in human MV4-11 cells assessed as viable cells at 0.5 uM measured after 48 hrs by Annexin V-FITC/PI double staining based flow cytometric analysis (reference value: 80.26 %); assay type: functional; conditions: read-out: Activity
MV4-11 [4] = test: Induction of apoptosis in human MV4-11 cells assessed as late apoptotic cells at 0.5 uM measured after 48 hrs by Annexin V-FITC/PI double staining based flow cytometric analysis (reference value: 12.03 %); assay type: functional
MV4-11 [5] = test: Induction of apoptosis in human MV4-11 cells assessed as late apoptotic cells at 2.5 uM measured after 48 hrs by Annexin V-FITC/PI double staining based flow cytometric analysis (reference value: 12.03 %); assay type: functional
MV4-11 [6] = test: Induction of apoptosis in human MV4-11 cells assessed as viable cells at 2.5 uM measured after 48 hrs by Annexin V-FITC/PI double staining based flow cytometric analysis (reference value: 80.26 %); assay type: functional; conditions: read-out: Activity
MV4-11 [7] = test: Induction of apoptosis in human MV4-11 cells assessed as viable cells at 0.1 uM measured after 48 hrs by Annexin V-FITC/PI double staining based flow cytometric analysis (reference value: 80.26 %); assay type: functional; conditions: read-out: Activity
MV4-11 [8] = test: Induction of apoptosis in human MV4-11 cells assessed as necrotic cells at 0.5 uM measured after 48 hrs by Annexin V-FITC/PI double staining based flow cytometric analysis (reference value: 5.67 %); assay type: functional
MV4-11 [9] = test: Induction of apoptosis in human MV4-11 cells assessed as late apoptotic cells at 0.1 uM measured after 48 hrs by Annexin V-FITC/PI double staining based flow cytometric analysis (reference value: 12.03 %); assay type: functional
MV4-11 [10] = test: Induction of cell cycle arrest in human MV4-11 cells assessed as accumulation at G0/G1 phase at 0.5 uM measured after 24 hrs by flow cytometry (reference value: 64.29 %); assay type: functional
[11] = biological target: Receptor-type tyrosine-protein kinase FLT3 (Homo sapiens) (UniProt P36888); test: Inhibition of FLT3 phosphorylation in human MV4-11 cells incubated for 12 hrs by Western blot analysis; assay type: cell-based; conditions: dose 0.1-2.5 µM, DDE = dose-dependent effect
MV4-11 [12] = test: Inhibition of ERK phosphorylation in human MV4-11 cells incubated for 12 hrs by Western blot analysis; assay type: cell-based; conditions: dose 0.1-2.5 µM, DDE = dose-dependent effect
MV4-11 [13] = test: Antiproliferative activity against human MV4-11 cells harboring FLT3-ITD mutant assessed as cell growth inhibition measured after 72 hrs by CCK8 assay; conditions: MV4-11, 72 h
MV4-11 [14] = test: Induction of apoptosis in human MV4-11 cells assessed as early apoptotic cells at 0.1 uM measured after 48 hrs by Annexin V-FITC/PI double staining based flow cytometric analysis (reference value: 2.04 %); assay type: functional
MOLM-13 = test: Antiproliferative activity against human MOLM-13 cells harboring FLT3-ITD mutant assessed as cell growth inhibition measured after 72 hrs by CCK8 assay; conditions: MOLM-13, 72 h
A549 = test: Antiproliferative activity human A549 cells assessed as cell growth inhibition measured after 72 hrs by CCK8 assay; conditions: A549, 72 h
MV4-11 [15] = test: Induction of apoptosis in human MV4-11 cells assessed as necrotic cells at 2.5 uM measured after 48 hrs by Annexin V-FITC/PI double staining based flow cytometric analysis (reference value: 5.67 %); assay type: functional
[16] = biological target: T1, Signal transducer and activator of transcription 5A (Homo sapiens) (UniProt P42229); test: Inhibition of STAT5 phosphorylation in human MV4-11 cells incubated for 12 hrs by Western blot analysis; assay type: cell-based; conditions: dose 0.1-2.5 µM, DDE = dose-dependent effect
T1 sequence (whole entry): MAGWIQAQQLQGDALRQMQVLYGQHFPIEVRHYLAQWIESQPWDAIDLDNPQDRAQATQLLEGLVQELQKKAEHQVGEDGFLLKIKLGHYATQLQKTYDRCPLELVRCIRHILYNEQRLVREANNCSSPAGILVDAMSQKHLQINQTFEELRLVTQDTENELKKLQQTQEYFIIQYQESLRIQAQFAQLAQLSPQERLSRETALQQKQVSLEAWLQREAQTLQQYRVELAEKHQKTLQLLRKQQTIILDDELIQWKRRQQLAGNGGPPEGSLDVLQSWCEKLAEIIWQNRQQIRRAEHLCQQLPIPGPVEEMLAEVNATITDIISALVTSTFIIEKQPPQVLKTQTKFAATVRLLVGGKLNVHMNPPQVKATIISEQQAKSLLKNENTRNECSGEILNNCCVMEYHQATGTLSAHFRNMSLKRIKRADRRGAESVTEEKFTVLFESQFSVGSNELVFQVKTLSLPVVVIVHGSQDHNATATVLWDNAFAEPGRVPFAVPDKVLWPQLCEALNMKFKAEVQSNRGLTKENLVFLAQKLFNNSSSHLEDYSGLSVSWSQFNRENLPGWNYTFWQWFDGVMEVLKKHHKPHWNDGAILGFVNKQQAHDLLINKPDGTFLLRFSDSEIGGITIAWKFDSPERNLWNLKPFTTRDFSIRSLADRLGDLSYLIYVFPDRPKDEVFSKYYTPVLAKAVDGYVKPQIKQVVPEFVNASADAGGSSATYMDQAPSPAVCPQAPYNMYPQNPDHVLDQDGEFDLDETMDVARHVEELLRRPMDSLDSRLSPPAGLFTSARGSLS

[17] = Cytotoxicity against HUVEC cells assessed as cell growth inhibition measured after 72 hrs by CCK8 assay; assay type: toxicity, cell-based; conditions: human
MV4-11 [18] = test: Induction of apoptosis in human MV4-11 cells assessed as early apoptotic cells at 0.5 uM measured after 48 hrs by Annexin V-FITC/PI double staining based flow cytometric analysis (reference value: 2.04 %); assay type: functional

Sequence of Receptor-type tyrosine-protein kinase FLT3 (Homo sapiens) (P36888 whole entry): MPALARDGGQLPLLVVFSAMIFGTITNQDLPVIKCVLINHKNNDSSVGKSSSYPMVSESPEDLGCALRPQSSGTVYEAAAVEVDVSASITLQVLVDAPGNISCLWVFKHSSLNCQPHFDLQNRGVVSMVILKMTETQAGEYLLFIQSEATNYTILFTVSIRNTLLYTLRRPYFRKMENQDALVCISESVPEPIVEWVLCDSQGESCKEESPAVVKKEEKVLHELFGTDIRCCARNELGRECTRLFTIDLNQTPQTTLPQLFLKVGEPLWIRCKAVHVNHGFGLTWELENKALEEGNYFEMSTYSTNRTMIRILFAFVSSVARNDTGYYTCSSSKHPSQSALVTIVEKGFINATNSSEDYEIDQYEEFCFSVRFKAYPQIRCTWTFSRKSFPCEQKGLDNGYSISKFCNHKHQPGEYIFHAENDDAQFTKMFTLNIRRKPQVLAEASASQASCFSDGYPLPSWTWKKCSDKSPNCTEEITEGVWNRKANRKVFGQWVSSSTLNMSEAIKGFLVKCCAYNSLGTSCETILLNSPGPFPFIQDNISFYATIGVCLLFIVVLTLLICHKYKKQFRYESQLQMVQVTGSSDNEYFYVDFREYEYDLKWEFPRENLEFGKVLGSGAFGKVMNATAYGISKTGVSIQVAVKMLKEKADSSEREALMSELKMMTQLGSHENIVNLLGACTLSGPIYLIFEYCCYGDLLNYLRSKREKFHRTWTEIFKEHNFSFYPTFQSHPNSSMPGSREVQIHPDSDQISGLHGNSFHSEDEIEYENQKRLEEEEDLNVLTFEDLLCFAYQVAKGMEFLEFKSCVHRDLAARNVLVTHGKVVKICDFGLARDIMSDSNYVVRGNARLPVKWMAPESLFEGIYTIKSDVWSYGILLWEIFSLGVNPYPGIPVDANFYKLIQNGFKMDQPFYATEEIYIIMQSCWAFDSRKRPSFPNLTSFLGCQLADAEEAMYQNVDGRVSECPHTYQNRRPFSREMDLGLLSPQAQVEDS
Sequence of Serine/threonine-protein kinase AKT (Homo sapiens) (P31749 whole entry, looked up): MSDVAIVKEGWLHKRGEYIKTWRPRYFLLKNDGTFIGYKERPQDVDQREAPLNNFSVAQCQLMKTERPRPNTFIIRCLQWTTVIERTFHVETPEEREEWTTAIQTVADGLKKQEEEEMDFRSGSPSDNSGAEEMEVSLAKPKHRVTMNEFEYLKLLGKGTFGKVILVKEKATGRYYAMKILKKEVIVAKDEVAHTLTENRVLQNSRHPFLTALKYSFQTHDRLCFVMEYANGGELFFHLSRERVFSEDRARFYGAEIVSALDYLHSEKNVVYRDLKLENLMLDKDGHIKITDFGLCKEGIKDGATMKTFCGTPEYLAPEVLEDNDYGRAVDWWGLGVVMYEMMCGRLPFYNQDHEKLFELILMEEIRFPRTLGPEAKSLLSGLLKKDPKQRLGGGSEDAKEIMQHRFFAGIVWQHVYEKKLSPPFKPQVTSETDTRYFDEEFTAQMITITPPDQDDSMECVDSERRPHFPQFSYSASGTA
Sequence of Serine/threonine-protein kinase AKT (Homo sapiens) (P31751 whole entry, looked up): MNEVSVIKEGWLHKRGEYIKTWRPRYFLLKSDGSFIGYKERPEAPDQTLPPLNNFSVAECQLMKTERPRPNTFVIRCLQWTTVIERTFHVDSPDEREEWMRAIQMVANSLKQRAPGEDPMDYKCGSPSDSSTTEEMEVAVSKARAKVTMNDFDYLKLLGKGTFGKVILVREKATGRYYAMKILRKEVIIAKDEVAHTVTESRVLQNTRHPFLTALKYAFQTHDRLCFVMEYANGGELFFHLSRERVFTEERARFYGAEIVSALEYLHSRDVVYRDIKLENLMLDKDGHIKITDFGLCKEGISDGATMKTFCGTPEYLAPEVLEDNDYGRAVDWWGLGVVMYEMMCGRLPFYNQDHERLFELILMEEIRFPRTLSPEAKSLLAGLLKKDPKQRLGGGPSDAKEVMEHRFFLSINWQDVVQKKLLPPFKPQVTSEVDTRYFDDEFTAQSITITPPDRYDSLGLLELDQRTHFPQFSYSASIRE
Sequence of Serine/threonine-protein kinase AKT (Homo sapiens) (Q9Y243 whole entry, looked up): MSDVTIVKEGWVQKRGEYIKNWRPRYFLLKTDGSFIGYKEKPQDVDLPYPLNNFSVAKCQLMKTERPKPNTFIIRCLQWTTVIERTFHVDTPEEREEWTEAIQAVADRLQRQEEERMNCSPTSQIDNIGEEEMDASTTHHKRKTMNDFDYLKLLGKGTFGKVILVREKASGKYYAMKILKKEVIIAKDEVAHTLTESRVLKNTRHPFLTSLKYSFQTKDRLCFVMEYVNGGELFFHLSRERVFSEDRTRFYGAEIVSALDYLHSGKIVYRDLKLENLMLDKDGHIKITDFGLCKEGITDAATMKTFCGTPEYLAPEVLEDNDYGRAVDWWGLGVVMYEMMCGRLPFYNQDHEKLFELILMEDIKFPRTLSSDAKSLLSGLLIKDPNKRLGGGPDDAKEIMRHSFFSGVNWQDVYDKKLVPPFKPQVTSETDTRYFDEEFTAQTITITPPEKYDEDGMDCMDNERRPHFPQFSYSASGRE

C=CC(=O)Nc1ccc(NC(=O)Nc2ccc(-c3cc(C)nc4noc(N)c34)cc2)cc1
inhibition [1]: Dde | IC50 (HL-60): > 10000 nM | Activity (MV4-11 [2]): 1.5% | viability at 0.5 µM (MV4-11 [3]): 77.5% | Activity (MV4-11 [4]): 14.58% | Activity (MV4-11 [5]): 35.01% | viability at 2.5 µM (MV4-11 [6]): 53.9% | viability at 0.1 µM (MV4-11 [7]): 81.8% | Activity (MV4-11 [8]): 5.47% | Activity (MV4-11 [9]): 11.88% | Activity (MV4-11 [10]): 71.37% | inhibition [11]: Dde | inhibition (MV4-11 [12]): Dde | IC50 (MV4-11 [13]): 325 nM | Activity (MV4-11 [14]): 1.83% | IC50 (MOLM-13): 507 nM | IC50 (A549): > 10000 nM | Activity (MV4-11 [15]): 9.56% | inhibition [16]: Dde | IC50 at 72 h [17]: > 10000 nM | Activity (MV4-11 [18]): 2.43%
